This data set is described as follows: gradient 5% acetonitrile 3 min, to 50% in 2 min, to 85% in 15 min, held 3 min, 100 µL/min. The following applies: column: Zorbax Extend-C18 2.1 x 50 mm; eluents: water / acetonitrile, 0.1% formic acid. Summed up:
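The system's dead and dwell volumes were 40 μL and 900 μL, with a Zorbax Extend-C18 column (2.1 × 50 mm, 1.8 μm) run at 100 μL/min in water and acetonitrile containing 0.1% formic acid each. Pure standards were analyzed in mixtures of ~100 molecules by HPLC–quadrupole time-of-flight mass spectrometry in positive and negative ionization mode. Retention time was assigned from computationally picked, manually inspected adduct peaks.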
Molecule `Cc1nc2cccnc2n1-c1cccc(C(=O)N2CCN(c3ccccn3)CC2)c1` displayed an RP-LC retention time of 568 s.

Consider `O=C(CN1CCN(Cc2ccc(F)cc2)C1=O)NC1CC1`, for which the RP-LC retention time came to 649 s.

As for `O=C(NC1(c2nc(-c3cccnc3)no2)CCCCC1)c1ccc(F)c(Cl)c1`, the RP-LC retention time was 1030 s.

Molecule `NC(=O)C(=O)c1cn(Cc2ccccc2)c2ccccc12` gave an RP-LC retention time of 872 s.

The molecule `Cc1c(C(=O)NC2CC2)cnn1-c1cc(-c2nc(C3CC3)no2)ccn1` returned an RP-LC retention time of 843 s.

In turn, `CC(CCc1ccccc1)NC(=O)C1CCN(c2cc(Oc3ccccc3)ncn2)CC1` (centres undefined) registered an RP-LC retention time of 998 s.

Take `Cc1cc(C)c(NC(=O)Cn2nc(N3CCC(C)CC3)c3ccccc3c2=O)c(C)c1`: the RP-LC retention time was found to be 1300 s.

For the molecule `COc1cccc(CNC2=NCCNC23CCN(S(=O)(=O)c2ccc(C)cc2)CC3)c1`, the RP-LC retention time was determined as 717 s.

Molecule `CCc1nn2c(CNC(=O)c3ccc(C)cc3)c(-c3ccccc3)nc2s1` came in with an RP-LC retention time of 950 s.

As for `Cc1nc(C)c(C(=O)Nc2ccc(F)cc2F)s1`, the RP-LC retention time came out at 755 s.

In the case of `O=C(c1cccc2[nH]ccc12)N1CCCC1c1nc(-c2cccc(Cl)c2)no1` (centres undefined), the RP-LC retention time amounted to 993 s.

In the case of `COc1ccc(NC(=O)N2CC(N(C(=O)NC(C)C)C3CCOCC3)C2)cc1OC`, the RP-LC retention time was determined as 598 s.

With `Cc1ccc(Nc2nc(Cl)nc3ncn(C)c23)c(C)c1`, the RP-LC retention time is 791 s.

`Cc1nn(C2CCS(=O)(=O)C2)c(C)c1N1CCN(C(=O)C(C)Oc2ccccc2)CC1` (centres undefined): the RP-LC retention time was 731 s.

The molecule `O=C(Cn1cnc2nc(N3CCC(C(=O)NC4CC4)CC3)sc2c1=O)NCCC1=CCCCC1` gave an RP-LC retention time of 698 s.

`Cc1cnc(C(=O)NCC2Cn3cccc3C(=O)N2C)cn1` (centres undefined) displayed an RP-LC retention time of 595 s.

For the molecule `CCSc1ccc(-c2cccc(NC(=O)COC)c2)nn1`, the RP-LC retention time came out at 762 s.

With `Cc1cc(S(=O)(=O)[C@H]2CS(=O)(=O)C[C@@H]2N2CCN(c3cccc(Cl)c3)CC2)ccc1F`, the RP-LC retention time turned out to be 1090 s.

In turn, `COc1cccc(-n2c(N3CCC(C(=O)NC4CC4)CC3)nc3ccsc3c2=O)c1` displayed an RP-LC retention time of 682 s.

On to `Cc1cccc(CNC(=O)C2CCCN(c3ccc4cc(S(=O)(=O)N5CCCC5)ccc4n3)C2)c1` (centres undefined), for which the RP-LC retention time was found to be 774 s.

On to `CS(=O)(=O)N1CCC(C2CCN(Cc3ccccc3C#N)C2)CC1` (centres undefined), for which the RP-LC retention time was determined as 590 s.

The molecule `O=C(c1ccc(=O)[nH]c1)N1CC(c2nc(-c3ccccn3)no2)C1` yielded an RP-LC retention time of 666 s.

In the case of `COc1cc(-c2nnc(COc3ccc(Cl)cc3Cl)o2)cc(OC)c1OC`, the RP-LC retention time turned out to be 994 s.

In turn, `Cc1cc2c(N3CCN(CCO)CC3)ncnc2s1` returned an RP-LC retention time of 520 s.

In turn, `Cc1nc(N2CCOCC2)c2c(C(=O)N3CCN(c4ccc(Cl)cc4)CC3)c(C)oc2n1` returned an RP-LC retention time of 895 s.

With `CCc1cccc(C)c1Nc1c(-c2ccc(N3CCOCC3)cc2)nc2ncccn12`, the RP-LC retention time amounted to 806 s.

Molecule `COc1ccc(CN(C)Cc2cc(=O)n3ccc(C)cc3n2)cc1OC` registered an RP-LC retention time of 587 s.

`Cc1oc(-c2ccc(NC(=O)C3CCCCC3)cc2)nc1Cn1cccn1`: the RP-LC retention time turned out to be 924 s.

The molecule `CSc1ccc(CNC(=O)c2ccc3ncnc(N4CCCC4)c3c2)cc1` yielded an RP-LC retention time of 669 s.

Regarding `CCOC(=O)c1c(S(=O)(=O)N2CCC(C(=O)Nc3cccc(Cl)c3)CC2)c(C)n(C)c1C`, the RP-LC retention time came out at 932 s.

For the molecule `Cn1cccc1C(=O)N1CC(c2nc(CCOCC3CCCC3)no2)C1`, the RP-LC retention time stood at 934 s.

`CCOc1ccc(CNC(=O)C2CCCN(c3cc(=O)n(C)c(=O)n3CC)C2)cc1OCC` (centres undefined) came in with an RP-LC retention time of 791 s.

In turn, `CCOC(=O)c1cnc2c(-c3ccc(F)cc3)c(COC)nn2c1N` returned an RP-LC retention time of 981 s.

As to `COc1cc(C(=O)N2CCN(c3cc(=O)n(C)c(=O)n3C)CC2)cc(OC)c1OC`, the RP-LC retention time was 630 s.

Take `CC(C)Cn1cc(S(=O)(=O)Nc2ccccc2Cl)c2cccnc21`: the RP-LC retention time was 1020 s.

With `Cc1cc(C)n(-c2ccc(=O)n(CCNC(=O)c3cncc(Br)c3)n2)n1`, the RP-LC retention time stood at 636 s.

For `CC(C)Nc1nc(=O)[nH]c2ccccc12`, the RP-LC retention time was determined as 550 s.

In turn, `COc1cccc(CNC(=O)C2=C3CCCN3c3ccccc3S2(=O)=O)c1` displayed an RP-LC retention time of 811 s.

`CCOC(=O)c1sc(NC(=O)COc2ccccc2Br)nc1C` registered an RP-LC retention time of 1050 s.

Molecule `Cc1ccc(CNc2nc(-c3nnc(-c4ccccc4)o3)nc3ccccc23)o1` gave an RP-LC retention time of 991 s.

Regarding `CCOC(=O)CC(=O)CSc1nnc(CNC(=O)c2ccc(F)cc2)o1`, the RP-LC retention time is 678 s.

`Cn1cc(S(=O)(=O)NCc2ccc(F)cc2Cl)c2cccnc21`: the RP-LC retention time worked out at 821 s.

In turn, `Cc1ccc(NC(=O)N2CC(c3nc(C(C)C)nn3C)C2)cc1` came in with an RP-LC retention time of 689 s.

For the molecule `CCSc1nnc(-c2nn(C)c3c2CN(S(=O)(=O)c2ccc(OC)cc2)CC3)n1CC`, the RP-LC retention time worked out at 905 s.

`CC(=O)Nc1ccc(OCC(=O)NCc2cc(F)ccc2F)nc1` came in with an RP-LC retention time of 681 s.

In turn, `CCN1C(=O)CCc2cc(NC(=O)c3ccc(C)s3)ccc21` yielded an RP-LC retention time of 800 s.

On to `Cc1ccc(C2Cn3nnc(-c4nc(-c5ccc6c(c5)OCO6)no4)c3CO2)c(C)c1` (centres undefined), for which the RP-LC retention time turned out to be 1250 s.

In turn, `O=S(=O)(NC1CCCCCC1)c1ccc(-c2nnc(C3CCC3)o2)o1` showed an RP-LC retention time of 996 s.

In turn, `Cc1noc(C)c1CN1CCCC(C)(c2nc(-c3ccccc3)no2)C1` (centres undefined) had an RP-LC retention time of 623 s.

Molecule `O=C(NC1CCCC1)C1CCCN(c2ccc3cc(S(=O)(=O)N4CCCC4)ccc3n2)C1` (centres undefined) came in with an RP-LC retention time of 716 s.

Turning to `COc1cccc(CC(=O)N2CCc3nc(-c4ccc(Cl)cc4)ncc3C2)c1`, the RP-LC retention time is 1050 s.

Molecule `Cc1nc(-c2cccc(NC(=O)c3cccc(F)c3)c2)cs1` yielded an RP-LC retention time of 856 s.

For `COc1cccc(-c2noc(C3CCCN3C(=O)Nc3ccccc3)n2)c1` (centres undefined), the RP-LC retention time amounted to 961 s.

For `CN(C(=O)c1ccc(F)cc1C(F)(F)F)C1CCN(c2nnc(-c3ccnn3C)c3ccccc23)CC1`, the RP-LC retention time was 850 s.

For `O=C(c1cn(-c2cc(N3CCSCC3)ncn2)cn1)N1CCc2ccccc2C1`, the RP-LC retention time was 886 s.

`CCN1CCN(CCNC(=O)C2Cn3cccc3C(=O)N2CC(C)C)CC1` (centres undefined): the RP-LC retention time is 562 s.

`Cc1cccc(-c2nnc(-c3nc(NC4CCS(=O)(=O)C4)c4ccccc4n3)o2)c1` (centres undefined) came in with an RP-LC retention time of 821 s.

The molecule `O=C(c1ccccc1Cl)N1CC2CC(C1)c1cccc(=O)n1C2` (centres undefined) showed an RP-LC retention time of 596 s.

Molecule `O=C(Cc1cccs1)N1CCCC1(CO)Cc1ccccc1` (centres undefined) displayed an RP-LC retention time of 853 s.

On to `CCn1cc(-c2nc(C(=O)Nc3ccc(C)cc3F)cs2)c2cccnc21`, for which the RP-LC retention time was 983 s.

`COc1cc(NC(=O)C2CCN(S(=O)(=O)c3c(C)nn(-c4ccccc4)c3C)CC2)cc(OC)c1` returned an RP-LC retention time of 848 s.

For the molecule `CCN1CCn2cc(S(=O)(=O)NCc3ccccc3Cl)cc2C1=O`, the RP-LC retention time was 713 s.

`Cc1cc2c(c(=O)n(-c3ccc(F)cc3)c(=O)n2CC(=O)Nc2ccc(Br)cc2)n1C` had an RP-LC retention time of 932 s.

In turn, `COc1ccc(NC(=O)C2CCN(S(=O)(=O)c3ccc4c(c3)sc(=O)n4C(C)C)CC2)cc1` came in with an RP-LC retention time of 922 s.

Regarding `O=C(c1csc(N2CCCC2)n1)N1CCOCC1`, the RP-LC retention time turned out to be 628 s.

`CC1=NS(=O)(=O)N(Cc2ccccc2)C=C1C(=O)OCc1nc(-c2ccc(Cl)cc2)no1`: the RP-LC retention time amounted to 1220 s.

For the molecule `Cc1cc(OCC(=O)NCc2ccccc2Cl)nc(N2CCCC2)n1`, the RP-LC retention time was found to be 620 s.

Molecule `O=C(NCc1ccc2c(c1)OCO2)C1CCCN(c2ncc(-c3ccc(F)cc3)cn2)C1` (centres undefined) showed an RP-LC retention time of 998 s.

With `O=S(=O)(c1cc(F)ccc1F)N1CCC(c2noc(COCC3CC3)n2)CC1`, the RP-LC retention time came to 1000 s.

Regarding `COCCn1c(C)c(C)c(S(=O)(=O)c2ccc(F)cc2)c1NC(=O)C1CCCO1` (centres undefined), the RP-LC retention time amounted to 839 s.

Molecule `Cc1ccc(CNC(=O)C2CCN(C(=O)C3Sc4ccccc4NC3=O)CC2)cc1` (centres undefined) yielded an RP-LC retention time of 818 s.

Turning to `O=C(c1ccc(F)cc1Cl)N1CCN(c2cc(-c3ccc(F)cc3)[nH]n2)CC1`, the RP-LC retention time is 837 s.

In turn, `Cc1ccc(Oc2nccnc2N2CCCC(C(=O)N3CCN(c4cc(C)ccc4C)CC3)C2)cc1` (centres undefined) returned an RP-LC retention time of 1400 s.

In the case of `CN1CCn2cc(S(=O)(=O)Nc3ccc(F)cc3Cl)cc2C1=O`, the RP-LC retention time stood at 690 s.

`CCC(=O)NCc1nc(-c2ccccc2Cl)no1` came in with an RP-LC retention time of 717 s.

The molecule `CCOc1ccc(-n2ccn3c(CCCC(=O)NC4CCCCCC4)nnc3c2=O)cc1` returned an RP-LC retention time of 783 s.

Regarding `CCOc1ccc(-n2c(CN3CCN(C(=O)NC(C)CC)CC3)nc3cccnc32)cc1` (centres undefined), the RP-LC retention time was found to be 650 s.

`O=S(=O)(c1ccc(F)cc1F)N1CCc2nc(-c3ccc(Cl)cc3)ncc2C1` came in with an RP-LC retention time of 1200 s.

In turn, `COc1cc(Cn2nc(C)c3cnn(C(C)(C)C)c3c2=O)cc(OC)c1` displayed an RP-LC retention time of 1070 s.

Source of the values: the METLIN SMRT retention time set (Domingo-Almenara et al. 2019).
